Data as given in patent US12435294B2, “Prevention of the oxidation of perfumery raw materials and food raw materials” (Firmenich SA, priority 2018, dated 2025).
Where “and” joins values, the source holds several entries; their conditions need not be identical. Identical values can stand only once. Like-named read-outs stand apart in the source and are kept apart here.

Legend:
[1] = POV reduction in model citrus perfume (mixed citrus oil in 90/10 v/v ethanol/water); conditions: for reduction in POV relative to untreated material: 7 days after addition, 1.0% w/v in model perfume
[2] = Solubility / miscibility observed on addition to the treated material
[3] = POV reduction in autoxidized limonene; conditions: 200 mg in 20 mL autoxidized limonene
Protocol: The vial was shaken once and allowed to stand for 50 minutes. No further treatment was done prior to the POV testing. […] POV before treatment was 65.97 mEq./L, and POV after treatment was 17.21 mEq./L. […] The vial was shaken once and allowed to stand, while being monitored for POV value as a function of time. […] The vial was shaken once and allowed to stand, while being monitored for POV value as a function of time.

[4] = POV reduction in sunflower oil; conditions: 0.3358 g in 15 mL sunflower oil
[5] = 1 day, approximately 150 mg (1.0% w/v) in 15 mL model perfume (Examples 14, 20, 21)
[6] = 2 days, 1.0% w/v in 15 mL model perfume (Examples 14, 20, 21)
[7] = 4 days, 1.0% w/v in 15 mL model perfume (Examples 14, 20, 21)
[8] = 7 days, 1.0% w/v in 15 mL model perfume (Examples 14, 20, 21)
[9] = 2880 min (48 hrs) since addition

## L-Ascorbic acid 2-phosphate sesqui-magnesium salt hydrate [Vc-PSeMg]
[1]; hydrate
  POV (mmol/L) of treated: 12.4 mmol/L and 12.32 mmol/L and 12.66 mmol/L and 12.28 mmol/L and 13.26 mmol/L and 15.25 mmol/L and 20.2 mmol/L

## O=CC(=O)O [Glyoxylic Acid]
[1]; model citrus perfume, 3 days after addition of treating compound
  POV after Treatment: 3.00 mmol/L
[1]; model citrus perfume, 3 days after addition of treating compound, vs untreated sample
  % POV Reduction: 54.6%
[1]; model citrus perfume, 10 days after addition of treating compound
  POV after Treatment: 1.61 mmol/L
[1]; model citrus perfume, 10 days after addition of treating compound, vs untreated sample
  % POV Reduction: 80.8%

## O=C(O)C(=O)c1ccccc1.O=C1NCCN1CCO [PhGA-HEI]
[1]; [5]
  POV of Treated Perfume: 3.51 mmol/L
[1]; [6]
  POV of Treated Perfume: 3.18 mmol/L
[1]; [7]
  POV of Treated Perfume: 3.06 mmol/L
[1]
  reduction in POV relative to untreated material: 58.8%
[1]; [8]
  POV of Treated Perfume: 2.94 mmol/L

## COC(=O)[C@H](CS)NC(C)=O [N-acetylcysteine methyl ester]
[1]
  % POV Reduction: 100%
  POV after Treatment: 0.00 mmol/L

## O=C(O)C(=O)c1ccccc1 [phenylglyoxylic acid]
[2]; 200 mg in 20 mL
  solubility in autoxidized limonene (in words): dissolved
[3]; 40 min since addition
  POV: 37.035 mEq/L
  POV reduction: 17.3%
[3]; 150 min since addition
  POV: 34.086 mEq/L
  POV reduction: 23.9%
[3]; 190 min since addition
  POV: 29.963 mEq/L
  POV reduction: 33.1%
[3]; [9]
  POV: 17.265 mEq/L
  POV reduction: 61.5%

## O=C(O)C(=O)c1ccco1 [α-Oxo-2-furanacetic acid, α-oxo-2-furanacetic acid]
[2]; on addition to mixed citrus oil
  solubility in mixed citrus oil (in words): The majority of the added α-oxo-2-furanacetic acid did not dissolve

## 2-Phospho-L-ascorbic acid trisodium salt [Vc-PTNa]
[1]; trisodium salt
  POV (mmol/L) of treated: 12.4 mmol/L and 11.7 mmol/L and 11.57 mmol/L and 10.15 mmol/L and 8.7 mmol/L and 9.22 mmol/L and 9.49 mmol/L

## CCCCCCCCCCN(C)C.O=C(O)C(=O)c1ccco1 [FAA-DiMeC10A]
[4]; 85 minutes since addition
  POV of treated oil: 5.16 mmol/L
[4]; 85 minutes
  % Reduction in POV: 68.8%
[4]; 140 minutes
  % Reduction in POV: 82.1%
  POV of treated oil: 2.97 mmol/L
[4]; 1320 mins (22 hrs)
  % Reduction in POV: 97.4%
  POV of treated oil: 0.43 mmol/L
[4]; 23 days
  % Reduction in POV: 100%
[4]; 23 days, indistinguishable from BLANK
  POV of treated oil: 0.00 mmol/L
[1]; [5]
  POV of Treated Perfume: 5.06 mmol/L
[1]; [6]
  POV of Treated Perfume: 4.89 mmol/L
[1]; [7]
  POV of Treated Perfume: 4.68 mmol/L
[1]
  reduction in POV relative to untreated material: 40.0%
[1]; [8]
  POV of Treated Perfume: 4.28 mmol/L
